Several values for one entry are separate records, joined by “and”; a condition that tells them apart may be missing. Equal entries are not always repeated.
Assays:
[1] = tested on: patients with TGCT; assay: Phase 1/2 open-label, multicenter study of vimseltinib in patients with TGCT: efficacy; assay type: in vivo, human; conditions: for Worst stiffness NRS response rate / Worst stiffness NRS response rate, n of responders: Week 25, response = at least a 2-point decrease; for PROMIS-PF response rate / PROMIS-PF response rate, No. of responders: Week 25, response = at least a 3-point increase; for Active ROM response rate / Active ROM response rate, No. of responders: Week 25, response = at least a 10% increase
Method: This is a Phase 1/2 open-label, multicenter study evaluating the safety and efficacy of vimseltinib in patients with TGCT. In Phase 1, 32 patients enrolled in three cohorts across multiple doses. In Phase 2, 66 patients enrolled in two cohorts at the recommended Phase 2 dose of 30 mg twice weekly: Cohort A (n=46) in TGCT patients with no prior anti-CSF1/CSF1R therapy (prior therapy with imatinib or nilotinib allowed); and Cohort B (n=20) in TGCT patients with prior anti-CSF1/CSF1R therapy (prior therapy with imatinib or nilotinib alone not eligible). With regards to antitumor activity and treatment duration, 93 patients were evaluable for efficacy by RECIST version 1.1 at the data cutoff date.

[2] = tested on: patients with TGCT not amenable to surgery; assay: Phase 3 study of vimseltinib in patients with TGCT: safety (TEAEs, Part 1); assay type: in vivo, human
Method: This study is a two-part, randomized, double-blind, placebo-controlled study to assess the efficacy and safety of vimseltinib in patients with TGCT not amenable to surgery with no prior anti-CSF1/CSF1R therapy (prior therapy with imatinib or nilotinib allowed). In Part 1, patients (n=123) were randomized two-to-one to receive either 30 mg twice weekly of vimseltinib (n=83) or placebo (n=40) for 24 weeks. Vimseltinib or matching placebo was administered orally each week on day 1 and day 5 (±1 day) at approximately the same time of day on an empty stomach, with ≥24 hours between doses. An MRI of the affected joint was performed at screening, cycle 4 day 1 (week 13; ±7 days), and at the end of Part 1. Part 2 is an ongoing open-label study, in which patients from both the vimseltinib and placebo arms receive treatment with vimseltinib.
The primary endpoint of the study is the objective response rate (ORR) at Week 25 as measured by Response Evaluation Criteria in Solid Tumors (RECIST) version 1.1 by blinded independent radiologic review (IRR). Key secondary endpoints included the objective response rate at Week 25 by IRR per tumor volume score (TVS), active range of motion (ROM) at Week 25, PROMIS physical function (PROMIS-PF) score, worst stiffness numeric rating scale (NRS) score at Week 25, EQ-visual analogue scale (EQ-VAS) score at Week 25, and greater than or equal to 30% reduction in Brief Pain Inventory (BPI) in worst pain and less than 30% increase in narcotic use (BPI-30) at Week 25. Other secondary endpoints included duration of response (DOR) and safety.
Vimseltinib was well-tolerated and the safety profile in the study was consistent with previously disclosed data. […] Patients with treatment-emergent adverse events (TEAEs) leading to treatment discontinuation was 5% in the vimseltinib arm. The table below lists TEAEs greater than 15% in either arm during Part 1 of the study.

[3] = Cohort A, Partial Response per RECIST v1.1 at Week 25 by IRR (n = 17)
[4] = Cohort A, Stable Disease per RECIST v1.1 at Week 25 by IRR (n = 22)
[5] = Cohort B (20 patients), Week 25
[6] = Cohort B, Partial Response per RECIST v1.1 at Week 25 by IRR (n = 5)
[7] = Cohort B, Stable Disease per RECIST v1.1 at Week 25 by IRR (n = 9)
[8] = Phase 2 Cohort A (n = 45), second data cutoff
[9] = Phase 2 Cohort B (n = 13), second data cutoff
[10] = Phase 2 Cohort B (n = 19), second data cutoff
[11] = 30 mg twice weekly, n=83, Part 1

## Cc1nc(-c2cnc(NC(C)C)n(C)c2=O)ccc1Oc1ccnc(-c2cnn(C)c2)c1 [Vimseltinib, 2-(isopropylamino)-3-methyl-5-(6-methyl-5-((2-(1-methyl-IH-pyrazol-4-yl)pyridin-4-yl)oxy)pyridin-2-yl)pyrimidin-4(3H)-one]
[1]; Cohort A (32 patients)
  Worst stiffness NRS at Week 25, mean: 3.1
[1]; Cohort A (35 patients)
  PROMIS-PF at Week 25, mean: 43.9
[1]; Cohort A (46 patients), Week 25
  BPI worst pain response rate: (50) %
[1]; Cohort A (46 patients), Week 25, 30% or greater decrease without 30% or greater increase in narcotic analgesic use
  BPI worst pain response rate, No. of responders: 23 No.
[1]; [3]
  Average pain responder: 12 (71) No. (%)
  Worst pain responder: 10 (59) No. (%)
[1]; [4]
  Average pain responder: 12 (55) No. (%)
  Worst pain responder: 12 (55) No. (%)
[1]; Cohort A, Week 25
  PROMIS-PF change from baseline, mean: 3.9
  Worst stiffness NRS change from baseline, mean: −1.8
[1]; Cohort A
  Worst stiffness NRS response rate: (66) %
  Worst stiffness NRS response rate, n of responders: 21 n
  PROMIS-PF response rate: (49) %
  PROMIS-PF response rate, No. of responders: 17 No.
  Active ROM response rate: (42) %
  Active ROM response rate, No. of responders: 19 No.
[1]; Cohort B (11/20), Week 25, ≥30% reduction in pain without ≥30% increase in narcotic analgesic use
  patients with BPI response for both worst pain and average pain: 55%
[1]; Cohort B (14 patients)
  Worst stiffness NRS at Week 25, mean: 2.6
[1]; Cohort B (15 patients)
  PROMIS-PF at Week 25, mean: 49.5
[1]; [5]
  BPI worst pain response rate: (55) %
  BPI worst pain response rate, No. of responders: 11 No.
[1]; [6]
  Average pain responder: 2 (40) No. (%)
  Worst pain responder: 2 (40) No. (%)
[1]; [7]
  Average pain responder: 7 (78) No. (%)
  Worst pain responder: 7 (78) No. (%)
[1]; Cohort B, Week 25
  BPI responders among patients with objective responses by RECIST v1.1: 40%
  BPI responders among patients with stable disease: 78%
  PROMIS-PF change from baseline, mean: 6.2
  Worst stiffness NRS change from baseline, mean: −2.2
  patients with clinically meaningful improvements in NRS stiffness: 58%
  patients with clinically meaningful improvements in PROMIS-PF: 63%
[1]; Cohort B
  Worst stiffness NRS response rate: (71) %
  Worst stiffness NRS response rate, n of responders: 10 n
  PROMIS-PF response rate: (80) %
  PROMIS-PF response rate, No. of responders: 12 No.
  Active ROM response rate: (26) %
  Active ROM response rate, No. of responders: 5 No.
[1]; Phase 1 (n = 32), multiple doses, first data cutoff
  ORR per RECIST v1.1 by IRR: 72%
[1]; Phase 2, second data cutoff
  progression as assessed by IRR: no patients progressed
[1]; Phase 2 Cohort A (33 patients), second data cutoff
  Active ROM at Week 25, mean: 77.8%
[1]; Phase 2 Cohort A (n = 45), 30 mg twice weekly, first data cutoff
  ORR per RECIST v1.1 by IRR at Week 25: 38%
[1]; Phase 2 Cohort A (n = 45), 30 mg twice weekly, no prior anti-CSF1/CSF1R therapy, first data cutoff
  ORR per RECIST v1.1 by IRR: 64%
[1]; [8]
  ORR per RECIST v1.1 by IRR: 64%
  ORR per RECIST v1.1 by IRR at Week 25: 38%
  ORR per TVS by IRR: 62%
  ORR per TVS by IRR at Week 25: 51%
[1]; Phase 2 Cohort A, second data cutoff
  Active ROM, change from baseline at Week 25, mean (SD): 19.7 (43.5) percentage points and 19.7 percentage points
[1]; [9]
  Active ROM of the affected joint at Week 25, mean (SD): 65.2 (37.5) % and 65.2%
  Active ROM, change from baseline to Week 25, mean (SD): 14.1 (27.4) percentage points and 14.1 percentage points
[1]; Phase 2 Cohort B (n = 16), 30 mg twice weekly, prior anti-CSF1/CSF1R therapy, first data cutoff
  ORR per RECIST v1.1 by IRR: 44%
[1]; [10]
  ORR per RECIST v1.1 by IRR: 37%
  ORR per RECIST v1.1 by IRR at Week 25: 26%
  ORR per TVS by IRR: 42%
  ORR per TVS by IRR at Week 25: 26%
[1]; Phase 2 Cohorts A and B, Week 25
  symptomatic benefit across secondary efficacy measures (ORR by TVS, active range of motion, physical function, stiffness, pain): clinically meaningful symptomatic benefit
[1]; Phase 2 cohort A, FIG. 9A
  Active ROM at Week 25: patients with decrease: 4 n
  Active ROM at Week 25: patients with increase from baseline: 23 n
  Active ROM at Week 25: patients with no change: 5 n
[1]; Phase 2 cohort B, FIG. 9B
  Active ROM at Week 25: patients with decrease: 1 n
  Active ROM at Week 25: patients with increase from baseline: 9 n
  Active ROM at Week 25: patients with no change: 3 n
[2]; 30 mg twice weekly
  cholestatic hepatotoxicity: no evidence of cholestatic hepatotoxicity
  related SAE: one related SAE of subcutaneous abscess
  severe adverse events (SAE) per patient: no severe adverse event (SAE) occurred in more than one patient
  tolerability: well-tolerated
[2]; [11]
  TEAE AST increased, All Grades: 19 (23%) n (%)
  TEAE AST increased, Grade 3-4, number of patients: 0 n
  TEAE Arthralgia, All Grades: 16 (19%) n (%)
  TEAE Arthralgia, Grade 3-4, number of patients: 0 n
  TEAE Asthenia, All Grades: 22 (27%) n (%)
  TEAE Asthenia, Grade 3-4, number of patients: 1 n
  TEAE Asthenia, Grade 3-4, percent of patients: (1%)
  TEAE CPK increased, All Grades: 20 (24%) n (%)
  TEAE CPK increased, Grade 3-4, number of patients: 8 n
  TEAE CPK increased, Grade 3-4, percent of patients: 10%
  TEAE Diarrhea, All Grades: 10 (12%) n (%)
  TEAE Diarrhea, Grade 3-4, number of patients: 0 n
  TEAE Edema peripheral, All Grades: 15 (18%) n (%)
  TEAE Edema peripheral, Grade 3-4, number of patients: 0 n
  TEAE Face edema, All Grades: 26 (31%) n (%)
  TEAE Face edema, Grade 3-4, number of patients: 1 n
  TEAE Face edema, Grade 3-4, percent of patients: (1%)
  TEAE Fatigue, All Grades: 27 (33%) n (%)
  TEAE Fatigue, Grade 3-4, number of patients: 0 n
  TEAE Headache, All Grades: 23 (28%) n (%)
  TEAE Headache, Grade 3-4, number of patients: 1 n
  TEAE Headache, Grade 3-4, percent of patients: (1%)
  TEAE Hypertension, All Grades: 14 (17%) n (%)
  TEAE Hypertension, Grade 3-4, number of patients: 4 n
  TEAE Hypertension, Grade 3-4, percent of patients: (5%)
  TEAE Nausea, All Grades: 21 (25%) n (%)
  TEAE Nausea, Grade 3-4, number of patients: 0 n
  TEAE Periorbital edema, All Grades: 37 (45%) n (%)
  TEAE Periorbital edema, Grade 3-4, number of patients: 3 n
  TEAE Periorbital edema, Grade 3-4, percent of patients: (4%)
  TEAE Pruritus, All Grades: 24 (29%) n (%)
  TEAE Pruritus, Grade 3-4, number of patients: 2 n
  TEAE Pruritus, Grade 3-4, percent of patients: (2%)
  TEAE Rash maculo-papular, All Grades: 16 (19%) n (%)
  TEAE Rash maculo-papular, Grade 3-4, number of patients: 1 n
  TEAE Rash maculo-papular, Grade 3-4, percent of patients: (1%)
  TEAE Rash, All Grades: 16 (19%) n (%)
  TEAE Rash, Grade 3-4, number of patients: 0 n
[2]; 30 mg twice weekly, n=83, Part 1, listed as Vimseltinb
  TEAE CPK increased, Grade 3-4, percent of patients: (10%)
[2]; vimseltinib arm
  Patients with TEAEs leading to treatment discontinuation: 5%

— patent publication US20260048052A1, “METHODS OF TREATING TENOSYNOVIAL GIANT CELL TUMORS” (Deciphera Pharmaceuticals, LLC, priority 2023, published 2026)
